As usually defined, the EC50 is the concentration at which the effect is half-maximal. The CC50 is the concentration giving 50% cytotoxicity. Low values mean harm at low concentration, high ones better tolerance by the cells.

A short description of experiment [1]: Effective concentration against Abeta(sw) peptide. In kind it is functional.
Experiment [2] is described as follows: Cytotoxic concentration against human and other tumor cell lines. The format is functional.
For a further experiment, the target named is Beta-secretase (BACE) (Homo sapiens, UniProt Q9Y5Z0+P56817). Kind of experiment: Beta-secretase inhibitory activity as inhibition of secreted alkaline phosphatase in HEK293 cells expressing SEAP-APP fusion protein. The format is functional, cell-based.

Turning to `CCOCCCNC(=O)c1cc(NC(=O)Nc2cccc(Cl)c2)ccc1N(C)C`, in experiment [1], a half-maximal response (EC50) required 2.6 µM. The compound further came in with a CC50 in experiment [2] of 11.1 µM.
For `CCSc1nsc(NC(=O)Nc2cccc(C(C)=O)c2)n1`, in that order: 2.6 µM and 23.3 µM.
On to `COCCCNC(=O)c1cc(NC(=O)Nc2cc(C(F)(F)F)cc(C(F)(F)F)c2)ccc1N(C)C`, for which the values for the EC50 (in experiment [1]; at Beta-secretase (BACE)) were 3.2 µM and 27 µM, respectively. The compound further yielded a CC50 in experiment [2] of 24.6 µM.
In experiment [1], `CN(C)c1ccc(NC(=O)Nc2cc(C(F)(F)F)cc(C(F)(F)F)c2)cc1C(=O)NCCCN1CCOCC1` returned an EC50 of 3 µM. Moreover, the cytotoxic concentration (CC50) in experiment [2] was found to be 12.5 µM.

Source of the values: ChEMBL document CHEMBL1144345, “Discovery of cell-permeable non-peptide inhibitors of beta-secretase by high-throughput docking and continuum electrostatics calculations” (J Med Chem, 2005).
